Assay results published in patent publication US20250145585A1, “HETEROCYCLIC INHIBITORS OF IGF-1R FOR TREATMENT OF DISEASE” (HORIZON THERAPEUTICS IRELAND DAC, priority 2023, published 2025).

Biological target: T1, IGF-1R (Homo sapiens, UniProt P08069)
T1 construct: expressed in transfected cells
Test: Example B-2: IGF-1R Assay (PathHunter cell lines, EC80 agonist challenge, chemiluminescent detection)
Format: cell-based
Settings: PathHunter cells, compound 60 minutes at 37° C., EC80 agonist 3 hours; read-out: IC50, Biological Activity against IGF-1R (Table B2)
Summary of the method: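 PathHunter cells were pre-incubated with compound for 60 min at 37° C (1% vehicle), then challenged with EC80 agonist for 3 h at room temperature. Chemiluminescent detection after 1 h gave % inhibition relative to EC80 and vehicle controls, from which IC50 was derived.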

T1 sequence (P08069 31-1367): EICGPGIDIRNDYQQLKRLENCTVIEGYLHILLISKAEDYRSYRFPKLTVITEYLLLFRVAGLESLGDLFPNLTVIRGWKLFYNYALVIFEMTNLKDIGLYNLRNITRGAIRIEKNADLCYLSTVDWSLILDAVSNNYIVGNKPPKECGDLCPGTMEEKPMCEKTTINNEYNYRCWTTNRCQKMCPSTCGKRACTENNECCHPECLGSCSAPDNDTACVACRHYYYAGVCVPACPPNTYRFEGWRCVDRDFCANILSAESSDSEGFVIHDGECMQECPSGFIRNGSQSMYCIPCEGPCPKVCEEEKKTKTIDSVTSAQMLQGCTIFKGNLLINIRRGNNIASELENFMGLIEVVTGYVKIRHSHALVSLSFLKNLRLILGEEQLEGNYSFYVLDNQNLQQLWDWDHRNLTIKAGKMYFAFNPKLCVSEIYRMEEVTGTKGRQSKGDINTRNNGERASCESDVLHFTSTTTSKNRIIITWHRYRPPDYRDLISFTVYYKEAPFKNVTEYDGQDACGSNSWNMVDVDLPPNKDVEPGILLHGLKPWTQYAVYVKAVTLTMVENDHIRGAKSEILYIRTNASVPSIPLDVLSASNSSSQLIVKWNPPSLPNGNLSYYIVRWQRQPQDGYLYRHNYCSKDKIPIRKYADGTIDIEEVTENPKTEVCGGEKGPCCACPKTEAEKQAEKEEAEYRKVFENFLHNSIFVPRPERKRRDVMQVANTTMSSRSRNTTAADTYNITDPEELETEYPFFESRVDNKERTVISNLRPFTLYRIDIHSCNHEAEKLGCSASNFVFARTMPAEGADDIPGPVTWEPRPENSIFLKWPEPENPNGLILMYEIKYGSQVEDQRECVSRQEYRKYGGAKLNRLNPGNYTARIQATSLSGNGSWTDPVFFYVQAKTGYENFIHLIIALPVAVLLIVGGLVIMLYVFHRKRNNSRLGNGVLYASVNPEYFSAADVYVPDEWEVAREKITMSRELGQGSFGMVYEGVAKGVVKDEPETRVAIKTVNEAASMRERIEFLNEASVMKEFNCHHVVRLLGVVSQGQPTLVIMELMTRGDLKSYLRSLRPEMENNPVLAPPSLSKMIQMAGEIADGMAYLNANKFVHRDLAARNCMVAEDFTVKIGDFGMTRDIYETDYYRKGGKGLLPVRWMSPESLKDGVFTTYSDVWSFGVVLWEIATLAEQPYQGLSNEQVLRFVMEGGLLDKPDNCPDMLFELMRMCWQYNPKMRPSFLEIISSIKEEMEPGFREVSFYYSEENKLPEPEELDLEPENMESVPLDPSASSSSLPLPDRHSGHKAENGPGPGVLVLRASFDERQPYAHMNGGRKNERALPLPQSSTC

IC50 | SMILES
≤ 500 nM | CC(Nc1cc(CN2C(=O)N(c3ccc(C4(C(F)(F)F)CC4)cc3)C(=O)C2(C)C)ccn1)c1cnn(C)c1 (stereo not drawn) [Compound 167, 5,5-dimethyl-1-((2-((1-(1-methyl-1H-pyrazol-4-yl)ethyl)amino)pyridin-4-yl)methyl)-3-(4-(1-(trifluoromethyl)cyclopropyl)phenyl) imidazolidine-2,4-dione]
> 10000 nM | CC(C)Nc1cc(CN2C(=O)N(c3ccc4c(c3)C(O)(O)C(F)(F)S4(=O)=O)C(=O)C2(C)C)ccn1 [Compound 192, 3-(2,2-difluoro-3,3-dihydroxy-1,1-dioxido-2,3-dihydrobenzo[b]thiophen-5-yl)-1-((2-(isopropylamino)pyridin-4-yl)methyl)-5,5-dimethylimidazolidine-2,4-dione]
2000 to 10000 nM | CC(C)Nc1cc(CN2C(=O)N(c3cnc4c(c3)OCC4(C)C)C(=O)C2(C)C)ccn1 [Compound 193, 3-(3,3-dimethyl-2,3-dihydrofuro[3,2-b]pyridin-6-yl)-1-((2-(isopropylamino)pyridin-4-yl)methyl)-5,5-dimethylimidazolidine-2,4-dione]
≤ 500 nM | CC(C)Nc1cc(CN2C(=O)N(c3ccc4c(c3)N(S(C)(=O)=O)CC4(C)C)C(=O)C2(C)C)ccn1 [Compound 194, 3-(3,3-dimethyl-1-(methylsulfonyl)indolin-6-yl)-1-((2-(isopropylamino)pyridin-4-yl)methyl)-5,5-dimethylimidazolidine-2,4-dione]
≤ 500 nM | CC(C)Nc1cc(CN2C(=O)N(c3ccc4c(c3)N(S(C)(=O)=O)CC43CCC3)C(=O)C2(C)C)ccn1 [Compound 195, 1-((2-(isopropylamino)pyridin-4-yl)methyl)-5,5-dimethyl-3-(1′-(methylsulfonyl)spiro[cyclobutane-1,3′-indolin]-6′-yl)imidazolidine-2,4-dione]
≤ 500 nM | CC1(C)CN(C(=O)C2CC2)c2cc(N3C(=O)N(Cc4ccnc(N[C@H]5CCOC5)c4)C(C)(C)C3=O)ccc21 [Compound 196, (S)-3-(1-(cyclopropanecarbonyl)-3,3-dimethylindolin-6-yl)-5,5-dimethyl-1-((2-((tetrahydrofuran-3-yl)amino)pyridin-4-yl)methyl)imidazolidine-2,4-dione]
2000 to 10000 nM | CC(C)Nc1cc(CN2C(=O)N(c3cnc4c(c3)N(C)CC4(C)C)C(=O)C2(C)C)ccn1 [Compound 197, 1-((2-(isopropylamino)pyridin-4-yl)methyl)-5,5-dimethyl-3-(1,3,3-trimethyl-2,3-dihydro-1H-pyrrolo[3,2-b]pyridin-6-yl)imidazolidine-2,4-dione]
≤ 500 nM | COC[C@@H](C)Nc1cc(CN2C(=O)N(c3ccc4c(c3)OCC4(C)C)C(=O)C2(C)C)ccn1 [Compound 198, (R)-3-(3,3-dimethyl-2,3-dihydrobenzofuran-6-yl)-1-((2-((1-methoxypropan-2-yl)amino)pyridin-4-yl)methyl)-5,5-dimethylimidazolidine-2,4-dione]
≤ 500 nM | CC1(C)COc2cc(N3C(=O)N(Cc4ccnc(NC5CCOCC5)c4)C(C)(C)C3=O)ccc21 [Compound 199, 3-(3,3-dimethyl-2,3-dihydrobenzofuran-6-yl)-5,5-dimethyl-1-((2-((tetrahydro-2H-pyran-4-yl)amino)pyridin-4-yl)methyl)imidazolidine-2,4-dione]
≤ 500 nM | CC(C)Nc1cc(CN2C(=O)N(c3ccc4c(c3)N(S(C)(=O)=O)CC43CC3)C(=O)C2(C)C)ccn1 [Compound 200, 1-((2-(isopropylamino)pyridin-4-yl)methyl)-5,5-dimethyl-3-(1′-(methylsulfonyl)spiro[cyclopropane-1,3′-indolin]-6′-yl)imidazolidine-2,4-dione]
≤ 500 nM | CC1(C)CN(S(C)(=O)=O)c2cc(N3C(=O)N(Cc4ccnc(N[C@H]5CCOC5)c4)C(C)(C)C3=O)ccc21 [Compound 201, (S)-3-(3,3-dimethyl-1-(methylsulfonyl)indolin-6-yl)-5,5-dimethyl-1-((2-((tetrahydrofuran-3-yl)amino)pyridin-4-yl)methyl)imidazolidine-2,4-dione]
≤ 500 nM | COC[C@@H](C)Nc1cc(CN2C(=O)N(c3ccc4c(c3)N(C)CC4(C)C)C(=O)C2(C)C)ccn1 [Compound 202, (R)-1-((2-((1-methoxypropan-2-yl)amino)pyridin-4-yl)methyl)-5,5-dimethyl-3-(1,3,3-trimethylindolin-6-yl)imidazolidine-2,4-dione]

More lines, now with the values behind:

SMILES | IC50
CC(Nc1cc(CN2C(=O)N(c3ccc(C4(C(F)(F)F)CC4)cc3)C(=O)C2(C)C)ccn1)c1cnccn1 (stereo not drawn) [Compound 168, 5,5-dimethyl-1-((2-((1-(pyrazin-2-yl)ethyl)amino)pyridin-4-yl)methyl)-3-(4-(1-(trifluoromethyl)cyclopropyl)phenyl) imidazolidine-2,4-dione] | ≤ 500 nM
Cn1cc(CNc2cc(CN3C(=O)N(c4ccc(C5(C(F)(F)F)CC5)cc4)C(=O)C3(C)C)ccn2)cn1 [Compound 169, 5,5-dimethyl-1-((2-(((1-methyl-1H-pyrazol-4-yl)methyl)amino)pyridin-4-yl)methyl)-3-(4-(1-(trifluoromethyl)cyclopropyl)phenyl) imidazolidine-2,4-dione] | ≤ 500 nM
CC1(C)C(=O)N(c2ccc(C3(C#N)CC3(C)C)cc2)C(=O)N1Cc1ccnc(N[C@H]2[C@@H]3COC[C@@H]32)c1 (stereo partly drawn) [Compound 170, 1-(4-(3-((2-(((1R,5S,6r)-3-oxabicyclo[3.1.0]hexan-6-yl)amino)pyridin-4-yl)methyl)-4,4-dimethyl-2,5-dioxoimidazolidin-1-yl)phenyl)-2,2-dimethylcyclopropane-1-carbonitrile] | ≤ 500 nM
CC1(C)C(=O)N(c2ccc(C3(C(F)(F)F)CC3)cc2)C(=O)N1Cc1ccnc(NCc2cn[nH]c2)c1 [Compound 171, 1-((2-(((1H-pyrazol-4-yl)methyl)amino)pyridin-4-yl)methyl)-5,5-dimethyl-3-(4-(1-(trifluoromethyl)cyclopropyl)phenyl) imidazolidine-2,4-dione] | ≤ 500 nM
CNS(=O)(=O)c1ccc(CNc2cc(CN3C(=O)N(c4ccc(C5(C(F)(F)F)CC5)cc4)C(=O)C3(C)C)ccn2)cc1 [Compound 172, 4-(((4-((5,5-dimethyl-2,4-dioxo-3-(4-(1-(trifluoromethyl)cyclopropyl)phenyl)imidazolidin-1-yl)methyl)pyridin-2-yl)amino)methyl)-N-methylbenzenesulfonamide] | ≤ 500 nM
CC1(C)C(=O)N(c2ccc(C3(C(F)(F)F)CC3)cc2)C(=O)N1Cc1ccnc(NCc2ncc[nH]2)c1 [Compound 173, 1-((2-(((1H-imidazol-2-yl)methyl)amino)pyridin-4-yl)methyl)-5,5-dimethyl-3-(4-(1-(trifluoromethyl)cyclopropyl)phenyl) imidazolidine-2,4-dione] | ≤ 500 nM
CC1(C)C(=O)N(c2ccc(C3(C(F)(F)F)CC3)cc2)C(=O)N1Cc1ccnc(NCc2nnc[nH]2)c1 [Compound 174, 1-((2-(((4H-1,2,4-triazol-3-yl)methyl)amino)pyridin-4-yl)methyl)-5,5-dimethyl-3-(4-(1-(trifluoromethyl)cyclopropyl)phenyl) imidazolidine-2,4-dione] | ≤ 500 nM
CC1(C)C(=O)N(c2ccc(C3(C(F)(F)F)CC3)cc2)C(=O)N1Cc1ccnc(NCc2nc3ccccn3n2)c1 [Compound 175, 1-((2-(([1,2,4]triazolo[1,5-a]pyridin-2-ylmethyl)amino)pyridin-4-yl)methyl)-5,5-dimethyl-3-(4-(1-(trifluoromethyl)cyclopropyl)phenyl) imidazolidine-2,4-dione] | ≤ 500 nM
Cn1cncc1CNc1cc(CN2C(=O)N(c3ccc(C4(C(F)(F)F)CC4)cc3)C(=O)C2(C)C)ccn1 [Compound 176, 5,5-dimethyl-1-((2-(((1-methyl-1H-imidazol-5-yl)methyl)amino)pyridin-4-yl)methyl)-3-(4-(1-(trifluoromethyl)cyclopropyl)phenyl) imidazolidine-2,4-dione] | ≤ 500 nM
CC1(C)C(=O)N(c2ccc(C3(C(F)(F)F)CC3)cc2)C(=O)N1Cc1ccnc(NCc2ncccn2)c1 [Compound 177, 5,5-dimethyl-1-((2-((pyrimidin-2-ylmethyl)amino)pyridin-4-yl)methyl)-3-(4-(1-(trifluoromethyl)cyclopropyl)phenyl) imidazolidine-2,4-dione] | ≤ 500 nM
CC1(C)C(=O)N(c2ccc(C(F)(F)F)c(C#N)c2)C(=O)N1Cc1ccnc(N[C@H]2[C@@H]3COC[C@@H]32)c1 [Compound 180, 5-(3-((2-(((1R,5S,6r)-3-oxabicyclo[3.1.0]hexan-6-yl)amino)pyridin-4-yl)methyl)-4,4-dimethyl-2,5-dioxoimidazolidin-1-yl)-2-(trifluoromethyl)benzonitrile] | > 10000 nM
CC1(C)C(=O)N(c2ccc(C3(C(F)(F)F)CC3)cc2)C(=O)N1Cc1ccnc(NCc2ccncn2)c1 [Compound 181, 5,5-dimethyl-1-((2-((pyrimidin-4-ylmethyl)amino)pyridin-4-yl)methyl)-3-(4-(1-(trifluoromethyl)cyclopropyl)phenyl) imidazolidine-2,4-dione] | ≤ 500 nM
CC1(C)C(=O)N(c2ccc(C3(C(F)(F)F)CC3)cc2)C(=O)N1Cc1ccnc(NCc2cnccn2)c1 [Compound 182, 5,5-dimethyl-1-((2-((pyrazin-2-ylmethyl)amino)pyridin-4-yl)methyl)-3-(4-(1-(trifluoromethyl)cyclopropyl)phenyl) imidazolidine-2,4-dione] | ≤ 500 nM
Cn1ccnc1CNc1cc(CN2C(=O)N(c3ccc(C4(C(F)(F)F)CC4)cc3)C(=O)C2(C)C)ccn1 [Compound 183, 5,5-dimethyl-1-((2-(((1-methyl-1H-imidazol-2-yl)methyl)amino)pyridin-4-yl)methyl)-3-(4-(1-(trifluoromethyl)cyclopropyl)phenyl) imidazolidine-2,4-dione] | ≤ 500 nM
CC1(C)C(=O)N(c2ccc(C3(C(F)(F)F)CC3)cc2)C(=O)N1Cc1ccnc(NCc2cc[nH]n2)c1 [Compound 184, 1-((2-(((1H-pyrazol-3-yl)methyl)amino)pyridin-4-yl)methyl)-5,5-dimethyl-3-(4-(1-(trifluoromethyl)cyclopropyl)phenyl) imidazolidine-2,4-dione] | ≤ 500 nM
